What all share (assay type): functional
The subject of test [1] is Pseudomonas aeruginosa. The experiment in a line: Antimicrobial activity against Pseudomonas aeruginosa ATCC 27853 by two-fold dilution method.
In test [2] the test system is Staphylococcus aureus. The experiment in a line: Antimicrobial activity against methicillin-resistant Staphylococcus aureus isolate 92 by two-fold dilution method.
The subject of test [3] is Staphylococcus aureus. The experiment in a line: Antimicrobial activity against methicillin-resistant Staphylococcus aureus isolate 98 by two-fold dilution method.
Test [4] concerns Staphylococcus aureus. The experiment in a line: Antimicrobial activity against Staphylococcus aureus ATCC 25923 by two-fold dilution method.

≈ marks a conversion by molar mass, not a printed value.

By MIC is commonly meant the smallest concentration in the dilution series that meets the test's criterion for growth inhibition.

As for `CC(=O)O[C@@H]1C[C@H](O)[C@]2(C)[C@H]3CC[C@@]4(C)[C@@H](c5ccoc5)OC(=O)[C@H]5O[C@]54[C@]3(C)[C@H](OC(C)=O)C[C@H]2C1(C)C`, the MIC in test [1] amounted to 25 µg/mL (≈ 45.9 µM); in test [2], 25 µg/mL (≈ 45.9 µM); in test [3], 12.5 µg/mL (≈ 23 µM); in test [4], 25 µg/mL (≈ 45.9 µM).

`CC(=O)O[C@H]1C[C@@H](OC(C)=O)C(C)(C)[C@@H]2CC(=O)[C@]3(C)[C@H](CC[C@@]4(C)[C@@H](c5ccoc5)OC(=O)[C@H]5O[C@]543)[C@@]12C`: the MIC in test [1] stood at 25 µg/mL (≈ 46.1 µM); in test [2], 50 µg/mL (≈ 92.1 µM); in test [3], 25 µg/mL (≈ 46.1 µM); in test [4], 50 µg/mL (≈ 92.1 µM).

For `COC(=O)C[C@H]1C(C)(C)[C@H](OC(C)=O)[C@]2(O)C=C3[C@H]([C@H](OC(C)=O)C[C@]4(C)[C@H]3CC(=O)O[C@H]4c3ccoc3)[C@@]1(C)C2=O`, the MIC in test [1], in test [2], in test [3] and in test [4] was 25 µg/mL (≈ 42.6 µM) each time.

For the compound `COC(=O)C[C@H]1C(C)(C)[C@H](OC(C)=O)[C@@H]2C=C3[C@@H]4CC(=O)O[C@@H](c5ccoc5)[C@]4(C)CC[C@@H]3[C@@]1(C)C2=O`, the MIC in test [1] was found to be 12.5 µg/mL (≈ 24.4 µM); in test [2] it was 12.5 µg/mL (≈ 24.4 µM); in test [3], 12.5 µg/mL (≈ 24.4 µM); in test [4] it was 25 µg/mL (≈ 48.8 µM).

As for `CC(=O)O[C@H]1C[C@@H](O)C(C)(C)[C@@H]2C[C@@H](O)[C@]3(C)[C@H](CC[C@@]4(C)[C@@H](c5ccoc5)OC(=O)[C@H]5O[C@@]534)[C@@]12C`, the MIC in test [1], in test [2], in test [3] and in test [4] was greater than 50 µg/mL each time.

Take `COC(=O)C[C@H]1[C@@]2(C)C[C@]3(O)O[C@@]4(CC(=O)[C@H]2O)[C@H]2CC(=O)O[C@@H](c5ccoc5)[C@]2(C)CC[C@@H]4[C@]13C`: the minimal inhibitory concentration (MIC) in test [1], in test [2], in test [3] and in test [4] was greater than 50 µg/mL throughout.

On to `C=C1[C@@H]2CC[C@@]3(C)[C@H](c4ccoc4)OC(=O)C[C@]13O[C@H]1CC(=O)OC(C)(C)[C@H]([C@@H](O)C(=O)OC)[C@]12C` (relative stereo), for which the MIC in test [1] is 25 µg/mL (≈ 49.7 µM); in test [2] it was 25 µg/mL (≈ 49.7 µM); in test [3] it was 50 µg/mL (≈ 99.5 µM); in test [4], 50 µg/mL (≈ 99.5 µM).

For the compound `COC(=O)[C@H](O)[C@H]1[C@]2(C)C[C@]3(OC(C)=O)[C@@H]4[C@@](OC)(O[C@]56CC(=O)O[C@@H](c7ccoc7)[C@]5(C)CC[C@H]([C@]13C)[C@@]46O)[C@H]2O` (relative stereo), the MIC in test [2] and in test [3] was greater than 50 µg/mL each time.

As to `COC(=O)[C@H](O)[C@@H]1[C@@]2(C)[C@H]3CC[C@]4(C)C(=CC(=O)O[C@H]4c4ccoc4)[C@]3(O)[C@H]3[C@@H](O)C(=O)[C@@]1(C)C[C@]32OC(C)=O` (relative stereo), the MIC in test [1], in test [2], in test [3] and in test [4] was greater than 50 µg/mL each time.

For `CC(=O)O[C@H]1C[C@@H](O)C(C)(C)[C@@H]2C[C@@H](OC(C)=O)[C@]3(C)[C@H](CC[C@@]4(C)[C@@H](c5ccoc5)OC(=O)[C@H]5O[C@@]534)[C@@]12C` [3-DEACETYLKHIVORIN], the MIC was 12.5 µg/mL (≈ 23 µM) in test [1], 12.5 µg/mL (≈ 23 µM) in test [2], 12.5 µg/mL (≈ 23 µM) in test [3] and 25 µg/mL (≈ 45.9 µM) in test [4].

With `COC(=O)[C@H](O)[C@H]1C(C)(C)C(=O)[C@@H]2C[C@]3(O)[C@@H]4CC(=O)O[C@@H](c5ccoc5)[C@]4(C)CC[C@@H]3[C@@]1(C)C2=O` [KHAYANONE], the MIC in test [1] is greater than 50 µg/mL; in test [2], 25 µg/mL (≈ 49.7 µM); in test [3], 25 µg/mL (≈ 49.7 µM); in test [4] it was 25 µg/mL (≈ 49.7 µM).

On to `C=C1[C@H]2CC[C@]3(C)[C@H](c4ccoc4)OC(=O)C[C@@]13O[C@H]1CC(=O)OC(C)(C)[C@@H](CC(=O)OC)[C@@]12C` [METHYL IVORENSATE], for which the MIC in test [1], in test [2], in test [3] and in test [4] was greater than 50 µg/mL each time.

As for `CC1(C)C(=O)[C@@H]2C[C@@]34O[C@]2(O)[C@]2(COC(=O)C[C@@H]12)[C@H]3CC[C@]1(C)[C@H]4CC(=O)O[C@H]1c1ccoc1` [SENEGANOLIDE], the MIC in test [1], in test [2], in test [3] and in test [4] was greater than 50 µg/mL in each case.

Consider `COC(=O)[C@H](O)[C@H]1C(C)(C)[C@H](OC(C)=O)[C@@H]2CC3=C4CC(=O)O[C@@H](c5ccoc5)[C@]4(C)CC[C@@H]3[C@@]1(C)C2=O` [SWIETENOLIDE-3-ACETATE], for which the MIC in test [1], in test [2], in test [3] and in test [4] was 25 µg/mL (≈ 47.3 µM) in each case.

`COC(=O)C[C@H]1C(C)(C)[C@H](OC(C)=O)[C@@H]2C=C3[C@H]([C@H](OC(C)=O)C[C@]4(C)[C@H]3CC(=O)O[C@H]4c3ccoc3)[C@@]1(C)C2=O` [SWIETMANIN B]: the MIC in test [1] was found to be 12.5 µg/mL (≈ 21.9 µM); in test [2], 50 µg/mL (≈ 87.6 µM); in test [3], 12.5 µg/mL (≈ 21.9 µM); in test [4], 25 µg/mL (≈ 43.8 µM).

`COC(=O)C[C@H]1C(C)(C)[C@H](O)[C@@H]2C=C3[C@H]([C@H](OC(C)=O)C[C@]4(C)[C@H]3CC(=O)O[C@H]4c3ccoc3)[C@@]1(C)C2=O` [Swietmanin C]: the MIC in test [1], in test [2], in test [3] and in test [4] was greater than 50 µg/mL throughout.

For `CN[C@H](CC(C)C)C(=O)N[C@H]1C(=O)N[C@@H](CC(N)=O)C(=O)N[C@H]2C(=O)N[C@H]3C(=O)N[C@H](C(=O)N[C@H](C(=O)O)c4cc(O)cc(O)c4-c4cc3ccc4O)[C@H](O)c3ccc(c(Cl)c3)Oc3cc2cc(c3O[C@@H]2O[C@H](CO)[C@@H](O)[C@H](O)[C@H]2O[C@H]2C[C@](C)(N)[C@H](O)[C@H](C)O2)Oc2ccc(cc2Cl)[C@H]1O.Cl` [VANCOMYCIN HYDROCHLORIDE], the MIC was 25 µg/mL in test [1], 0.78 µg/mL in test [2], 0.78 µg/mL in test [3] and 0.78 µg/mL in test [4].

With `COC(=O)[C@@H](OC(C)=O)[C@H]1C(C)(C)C(=O)[C@@H]2C=C3[C@@H]4CC(=O)O[C@@H](c5ccoc5)[C@]4(C)CC[C@@H]3[C@@]1(C)C2=O` [khayalenoid E], the minimum inhibitory concentration (MIC) in test [1], in test [2], in test [3] and in test [4] was 25 µg/mL (≈ 47.5 µM) throughout.

Values taken from ChEMBL document CHEMBL2331227, “Khayseneganins A-H, limonoids from Khaya senegalensis” (2013).
